Common to all, as to assay: NCI anticancer screen, dose series, 48 h
Assay [1] concerns A549 NSCLC.
Assay [2] has as its system HCT-15 colon.
The test system of assay [3] is KM12 colon.
Assay [4] concerns NCI-H23 lung.
Assay [5] concerns NCI-H522 lung.
In assay [6] the test system is SF-539 CNS.
For assay [7], the system named is SK-OV-3 ovarian.
In assay [8] the test system is SNB-19 CNS.
The subject of assay [9] is SW-620 colon.
Assay [10] deals with SN12C renal.

The source of these data is PubChem BioAssay (NCI).

Molecules are shown by their SMILES.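 48-hour exposure; five concentrations; linearly interpolated endpoints. GI50: concentration for 50% inhibition of growth. The concentration for full growth arrest is given as TGI.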

For the molecule `CCCc1cc(=O)n2c(C(=O)Nc3ccccc3OC)c(C(=O)Nc3ccc(F)cc3)sc2n1`, the GI50 in assay [1] was 5.27 µM; in [2] it was 72 µM; in assay [3], 49.8 µM; in assay [4] it was 37.1 µM; in assay [5] it was 17.7 µM; in [6], 16.8 µM. Moreover, the GI50 in [7] is 22.2 µM; in [8], 23.1 µM; in [9], 31 µM. Further, the TGI in assay [1] was 20.2 µM; in [2], more than 160 µM; in assay [3] it was more than 160 µM; in [4], more than 160 µM; in [5] it was 68 µM; in [6], 38 µM. For the same molecule, the TGI is 96.7 µM in assay [7], 68.5 µM in [8] and more than 160 µM in assay [9].
`COC(=O)C1=C(O)c2cc3c(cc2[C@H](c2cc(OC)c(OC)c(OC)c2)C1C(=O)OC)OCO3` (stereo not given in full): the TGI in assay [1], in assay [2], in assay [3], in [4], in assay [6] and in assay [7] was more than 100 µM throughout. Also, the values for the TGI in assay [10], in assay [8] and in assay [9] were 88 µM, more than 100 µM and more than 100 µM, respectively.
In the case of `Cc1c(Cl)cccc1NC1=C(Cl)C(=O)N(Cc2ccccc2)C1=O`, the GI50 in [1] is 12 µM; in assay [2] it was 4.37 µM; in assay [3] it was 2.17 µM; in [4] it was 10.8 µM; in assay [5] it was 17 µM; in [7], 14.7 µM. Further, the GI50 in [10] is 11.4 µM; in [8] it was 22.1 µM. The TGI is 29.6 µM in assay [1]; 18 µM in assay [2]; 14 µM in assay [3]; 22.7 µM in [4]; more than 100 µM in [5]; 30.2 µM in assay [7]. Moreover, the TGI was 24.1 µM in [10] and 61.5 µM in [8].
As for `CC1CCC(C(C)C)C(O[C@@H]2OC(=O)C[C@@H]2Sc2ccccc2)C1` (stereo not given in full), the TGI in assay [1] was determined as 85.9 µM; in [2] it was 59.5 µM; in [3], 54.1 µM; in [4] it was 96.3 µM; in [6], 61.8 µM; in assay [7], 91.7 µM. Besides, the TGI in assay [10] was 32 µM; in assay [8], more than 100 µM; in assay [9], 39.2 µM.
Consider `O=C1CCC2(c3ccccc3)Nc3ncccc3N12` (stereo not given), for which the TGI in [1], in assay [2], in [3], in [4], in [5] and in [6] was more than 100 µM each time. Further, the TGI in [7], in assay [10] and in assay [9] was more than 100 µM each time.
On to `CC#CC1C(OC(=O)c2ccccc2)CCCC1(CI)N=[N+]=[N-]` (stereo not given), for which the TGI in assay [1] was more than 100 µM; in assay [2] it was more than 100 µM; in [3], more than 100 µM; in assay [4], more than 100 µM; in [5] it was 63.8 µM; in assay [6] it was more than 100 µM. Moreover, the TGI in [7], in [10] and in assay [9] was more than 100 µM in each case.
Consider `CCNCCNc1cc(C2CCCCC2)c(C#N)c2nc3ccccc3n12`, for which the GI50 in assay [1] is 2.19 µM; in assay [2] it was 1.69 µM; in assay [3], 2.76 µM; in assay [4] it was 2.06 µM; in [5], 2.05 µM; in assay [7], 1.81 µM. Also, the GI50 is 1.93 µM in assay [10], 4.9 µM in assay [8] and 1.44 µM in assay [9]. For the same molecule, the TGI was found to be 4.76 µM in [1]; 3.46 µM in [2]; 8.48 µM in assay [3]; 5.54 µM in [4]; 4.4 µM in assay [5]; 3.48 µM in assay [7]. The TGI was 4.02 µM in [10], 18.4 µM in [8] and 3.15 µM in assay [9].
Consider `C[C@@H](NC1CCC[C@H]1O)c1ccccc1` (stereo not given in full), for which the TGI in assay [1], in [2], in [3], in [7], in [10] and in assay [8] was more than 100 µM each time. For the same molecule, in [9], the TGI was more than 100 µM.
On to `CCN(CC)c1ccc(C(=N)c2ccc(N(C)C)cc2)cc1`, for which the GI50 is 1.62 µM in [1]; 0.17 µM in assay [2]; 0.171 µM in [3]; 0.218 µM in assay [4]; 1.63 µM in [6]; 2.15 µM in [7]. Moreover, the GI50 in assay [10] was 2.36 µM; in assay [8], 2.19 µM; in assay [9], 0.174 µM. The TGI was determined as 11.4 µM in [1]; 7.93 µM in [2]; 4.05 µM in assay [3]; 3.19 µM in assay [4]; 4.18 µM in [6]; 10.4 µM in assay [7]. Besides, the TGI amounted to 9.14 µM in assay [10], 10.1 µM in assay [8] and 5.63 µM in assay [9].
Turning to `Cc1ccc2c(c1)C(=O)c1c-2n(CCCBr)c(=O)c2cc([N+](=O)[O-])ccc12`, the GI50 was more than 100 µM in assay [1]; 97.8 µM in assay [2]; more than 100 µM in [3]; 12.2 µM in [5]; more than 100 µM in assay [6]; more than 100 µM in assay [7]. For the same molecule, the GI50 in assay [10] is 46.4 µM; in assay [8], 47.9 µM; in assay [9] it was 51.6 µM. The TGI in assay [1] is more than 100 µM; in assay [2] it was more than 100 µM; in assay [3], more than 100 µM; in assay [5] it was 96.2 µM; in assay [6], more than 100 µM; in assay [7] it was more than 100 µM. The TGI in assay [10], in assay [8] and in assay [9] was more than 100 µM in each case.
On to `C1CCOC2(CCC3(CC2)OCCCCO3)OC1`, for which the TGI in assay [1], in assay [2], in assay [3], in [5], in [6] and in [7] was more than 100 µM throughout. Besides, the TGI in [10], in assay [8] and in [9] was more than 100 µM throughout.
`C=CC1C(OC2OC(CO)C(O)C(O)C2O)OC=C(C(=O)OC)C1CC=O` (stereo not given): the TGI in [1], in [2], in assay [3], in assay [4], in assay [6] and in assay [7] was more than 100 µM in each case. Also, the TGI in assay [10], in [8] and in assay [9] was more than 100 µM in each case.
As to `CCCCN(CCCC)c1ccc(C(=NC(C)CCCN(CC)CC)c2ccc(N(C)C)cc2)cc1` (stereo not given), the GI50 in assay [1] is 1.01 µM; in [2] it was 0.767 µM; in assay [3], 0.965 µM; in [4] it was 0.889 µM; in [5], 0.706 µM; in [6], 0.899 µM. For the same molecule, the GI50 in assay [7] is 1.14 µM; in assay [8] it was 1.14 µM; in assay [9], 0.793 µM. The TGI was found to be 2.57 µM in [1]; 1.56 µM in [2]; 2.33 µM in [3]; 1.93 µM in assay [4]; 1.56 µM in assay [5]; 1.72 µM in assay [6]. Also, the figures for the TGI in assay [7], in assay [8] and in assay [9] were 2.33 µM, 2.82 µM and 1.68 µM, respectively.
`CCCC(Sc1ccccc1)P(=O)(c1ccccc1)c1ccccc1` (stereo not given): the TGI is more than 100 µM in assay [1]; more than 100 µM in assay [3]; more than 100 µM in assay [4]; more than 100 µM in [5]; more than 100 µM in assay [6]; 50.7 µM in [7]. Moreover, the TGI in assay [10], in assay [8] and in [9] was more than 100 µM each time.
Take `C=CCC(OCCOCC)c1cc(OCCOCC)ccc1OC` (stereo not given): the TGI in [1], in [2], in assay [3], in [5], in assay [6] and in assay [7] was more than 100 µM each time. Besides, the TGI in assay [10], in [8] and in assay [9] was more than 100 µM in each case.
For the molecule `CCOc1ccccc1/C=N\N=C(\N)N/N=C/c1ccccc1OCC`, the GI50 in assay [1] was 4.25 µM; in assay [2], 1.46 µM; in assay [3] it was 1.89 µM; in [4] it was 5.86 µM; in [7], 2.93 µM; in assay [10], 5.89 µM. The values for the GI50 in assay [8] and in assay [9] were 4.49 µM and 2.46 µM, respectively. Moreover, the TGI in assay [1], in assay [2], in [3], in assay [4], in assay [7] and in assay [10] was more than 100 µM in each case. Besides, the TGI in assay [8] and in assay [9] was more than 100 µM each time.
`COc1cc(/C=C/C(=O)c2sc(NNC(C)=O)nc2C)ccc1O`: the TGI in [1], in [2], in assay [3], in [4], in assay [5] and in [6] was more than 100 µM in each case. Besides, the TGI in assay [7], in assay [10] and in [9] was more than 100 µM throughout.
